{
  "source": "patent US12059498B2",
  "about": "“Preparation and storage of liposomal RNA formulations suitable for therapy” (BioNTech SE, priority 2017, dated 2024)",
  "note": "Entries after “also recorded” stand apart in the source; their conditions may differ.",
  "data": [
    {"assay": "Freezing of RNA lipoplexes with cryoprotectants, particle size", "details": "RNA lipoplexes frozen with increasing concentration of the compound", "source_text": "Methods: Different compounds representative for monosaccharides (glucose and sorbitol), disaccharides (sucrose and trehalose), amino acids (arginine, prolin), triols (glycerin) as well as cryoprotectant systems containing mixtures of different sugars (mannitol and sucrose) were investigated in order to identify suited cryoprotectants (FIGS. 25 and 26). Therefore RNA lipoplexes were frozen in the presence of increasing concentration of these compounds. In order to identify minimum content of cryoprotectant at a certain concentration of NaCl, RNA lipoplexes were frozen in the presence of increasing amounts of sucrose or trehalose as representative cryoprotectants (Table 7). The samples were initially frozen a single time in order to determine the concentration range of cryoprotectant to be investigated in detail. In a third experiment, the efficacy of stabilization of the particle size was challenged by freezing of the RNA lipoplexes up to 10 times in the presence of the cryoprotectant trehalose (Table 8).", "values": [
      {"smiles": "OCC(O)CO", "note": "[Glycerin]", "stabilization of RNA lipoplexes during freezing (as cryoprotectant)": "can be used as cryoprotectants"},
      {"smiles": "N=C(N)NCCC[C@H](N)C(=O)O", "note": "[arginine]", "stabilization of RNA lipoplexes during freezing (as cryoprotectant)": "clearly destabilizes the RNA lipoplexes"},
      {"smiles": "OC[C@@H](O)[C@@H](O)[C@H](O)[C@@H](O)CO", "note": "[sorbitol]", "stabilization of RNA lipoplexes during freezing (as cryoprotectant)": "can be used as cryoprotectants; also recorded: lower"}
    ]}
  ]
}
